{"source": "the supplement of paper PMC10307832", "experiment_in_all_cases": "relative viability (nuclei count vs DMSO), 5 days (fraction); higher = more cells survive", "key": {"NCI-H727": {"test_system": "NCI-H727", "summary_of_the_method": "(§1)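 Dosing by pin tool came one day after lung cancer cell lines were seeded in 1536-well plates, using either one drug or a fixed anchor-drug dose plus five library-drug doses (not always all listed) in √10 steps. After 5 days, nuclei were counted on 4× images. Relative viability is treated-well nuclei count divided by vehicle-well nuclei count, and values are medians of duplicate plates.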"}, "NCI-H1395": {"test_system": "NCI-H1395", "summary_of_the_method": "as §1"}, "NCI-H1355": {"test_system": "NCI-H1355", "summary_of_the_method": "as §1"}, "201T": {"test_system": "201T", "summary_of_the_method": "as §1"}, "SK-MES-1": {"test_system": "SK-MES-1", "summary_of_the_method": "as §1"}, "HCC-366": {"test_system": "HCC-366", "summary_of_the_method": "as §1"}, "NCI-H2085": {"test_system": "NCI-H2085", "summary_of_the_method": "as §1"}, "SK-LU-1": {"test_system": "SK-LU-1", "summary_of_the_method": "as §1"}, "NCI-H358": {"test_system": "NCI-H358", "summary_of_the_method": "as §1"}, "NCI-H647": {"test_system": "NCI-H647", "summary_of_the_method": "as §1"}, "NCI-H322M": {"test_system": "NCI-H322M", "summary_of_the_method": "as §1"}, "HCC-78": {"test_system": "HCC-78", "summary_of_the_method": "as §1"}, "PC-14": {"test_system": "PC-14", "summary_of_the_method": "as §1"}, "NCI-H1975": {"test_system": "NCI-H1975", "summary_of_the_method": "as §1"}, "BEN": {"test_system": "BEN", "summary_of_the_method": "as §1"}, "LU99A": {"test_system": "LU99A", "summary_of_the_method": "as §1"}, "UMC-11": {"test_system": "UMC-11", "summary_of_the_method": "as §1"}, "NCI-H2087": {"test_system": "NCI-H2087", "summary_of_the_method": "as §1"}, "NCI-H2126": {"test_system": "NCI-H2126", "summary_of_the_method": "as §1"}, "LOU-NH91": {"test_system": "LOU-NH91", "summary_of_the_method": "as §1"}, "HCC-44": {"test_system": "HCC-44", "summary_of_the_method": "as §1"}, "NCI-H1734": {"test_system": "NCI-H1734", "summary_of_the_method": "as §1"}}, "data": [{"compound": "Oc1nc(-c2ccc(C(F)(F)F)cc2)nc2c1CSCC2", "note": "[XAV939] + Nc1ncn([C@H]2C[C@H](O)[C@@H](CO)O2)c(=O)n1 [Decitabine] (partner 2 µM)", "values": [{"measurement": "relative viability", "setting": "NCI-H727; first compound 0.08 µM", "result": 0.805}, {"measurement": "relative viability", "setting": "NCI-H727; first compound 0.8 µM", "result": 0.934}, {"measurement": "relative viability", "setting": "NCI-H727; first compound 2.53 µM", "result": 0.653}, {"measurement": "relative viability", "setting": "NCI-H1395; first compound 0.08 µM", "result": 0.77}, {"measurement": "relative viability", "setting": "NCI-H1395; first compound 0.253 µM", "result": 0.683}, {"measurement": "relative viability", "setting": "NCI-H1395; first compound 0.8 µM", "result": 0.795}, {"measurement": "relative viability", "setting": "NCI-H1395; first compound 2.53 µM", "result": 0.688}, {"measurement": "relative viability", "setting": "NCI-H1355; first compound 0.08 µM", "result": 0.357}, {"measurement": "relative viability", "setting": "NCI-H1355; first compound 0.253 µM", "result": 0.309}, {"measurement": "relative viability", "setting": "NCI-H1355; first compound 0.8 µM", "result": 0.393}, {"measurement": "relative viability", "setting": "NCI-H1355; first compound 2.53 µM", "result": 0.298}, {"measurement": "relative viability", "setting": "201T; first compound 0.08 µM", "result": 0.87}, {"measurement": "relative viability", "setting": "201T; first compound 0.253 µM", "result": 0.901}, {"measurement": "relative viability", "setting": "201T; first compound 0.8 µM", "result": 0.779}, {"measurement": "relative viability", "setting": "201T; first compound 2.53 µM", "result": 0.788}, {"measurement": "relative viability", "setting": "SK-MES-1; first compound 0.08 µM", "result": 0.359}, {"measurement": "relative viability", "setting": "SK-MES-1; first compound 0.253 µM", "result": 0.342}, {"measurement": "relative viability", "setting": "SK-MES-1; first compound 0.8 µM", "result": 0.358}, {"measurement": "relative viability", "setting": "SK-MES-1; first compound 2.53 µM", "result": 0.381}, {"measurement": "relative viability", "setting": "HCC-366; first compound 0.08 µM", "result": 0.329}, {"measurement": "relative viability", "setting": "HCC-366; first compound 0.253 µM", "result": 0.299}, {"measurement": "relative viability", "setting": "HCC-366; first compound 0.8 µM", "result": 0.326}, {"measurement": "relative viability", "setting": "HCC-366; first compound 2.53 µM", "result": 0.31}, {"measurement": "relative viability", "setting": "NCI-H2085; first compound 0.08 µM", "result": 0.536}, {"measurement": "relative viability", "setting": "NCI-H2085; first compound 0.253 µM", "result": 0.494}, {"measurement": "relative viability", "setting": "NCI-H2085; first compound 0.8 µM", "result": 0.537}, {"measurement": "relative viability", "setting": "NCI-H2085; first compound 2.53 µM", "result": 0.462}, {"measurement": "relative viability", "setting": "SK-LU-1; first compound 0.08 µM", "result": 0.665}, {"measurement": "relative viability", "setting": "SK-LU-1; first compound 0.253 µM", "result": 0.523}, {"measurement": "relative viability", "setting": "SK-LU-1; first compound 0.8 µM", "result": 0.652}, {"measurement": "relative viability", "setting": "SK-LU-1; first compound 2.53 µM", "result": 0.688}, {"measurement": "relative viability", "setting": "NCI-H358; first compound 0.08 µM", "result": 0.219}, {"measurement": "relative viability", "setting": "NCI-H358; first compound 0.253 µM", "result": 0.207}, {"measurement": "relative viability", "setting": "NCI-H358; first compound 0.8 µM", "result": 0.235}, {"measurement": "relative viability", "setting": "NCI-H358; first compound 2.53 µM", "result": 0.215}, {"measurement": "relative viability", "setting": "NCI-H647; first compound 0.08 µM", "result": 0.393}, {"measurement": "relative viability", "setting": "NCI-H647; first compound 0.253 µM", "result": 0.26}, {"measurement": "relative viability", "setting": "NCI-H647; first compound 0.8 µM", "result": 0.283}, {"measurement": "relative viability", "setting": "NCI-H647; first compound 2.53 µM", "result": 0.279}, {"measurement": "relative viability", "setting": "NCI-H322M; first compound 0.08 µM", "result": 0.684}, {"measurement": "relative viability", "setting": "NCI-H322M; first compound 0.253 µM", "result": 0.619}, {"measurement": "relative viability", "setting": "NCI-H322M; first compound 0.8 µM", "result": 0.653}, {"measurement": "relative viability", "setting": "NCI-H322M; first compound 2.53 µM", "result": 0.566}, {"measurement": "relative viability", "setting": "HCC-78; first compound 0.08 µM", "result": 0.679}, {"measurement": "relative viability", "setting": "HCC-78; first compound 0.253 µM", "result": 0.655}, {"measurement": "relative viability", "setting": "HCC-78; first compound 0.8 µM", "result": 0.732}, {"measurement": "relative viability", "setting": "HCC-78; first compound 2.53 µM", "result": 0.642}, {"measurement": "relative viability", "setting": "PC-14; first compound 0.08 µM", "result": 0.203}, {"measurement": "relative viability", "setting": "PC-14; first compound 0.253 µM", "result": 0.224}, {"measurement": "relative viability", "setting": "PC-14; first compound 0.8 µM", "result": 0.165}, {"measurement": "relative viability", "setting": "PC-14; first compound 2.53 µM", "result": 0.18}, {"measurement": "relative viability", "setting": "NCI-H1975; first compound 0.08 µM", "result": 0.382}, {"measurement": "relative viability", "setting": "NCI-H1975; first compound 0.253 µM", "result": 0.357}, {"measurement": "relative viability", "setting": "NCI-H1975; first compound 0.8 µM", "result": 0.379}, {"measurement": "relative viability", "setting": "NCI-H1975; first compound 2.53 µM", "result": 0.354}, {"measurement": "relative viability", "setting": "BEN; first compound 0.08 µM", "result": 0.73}, {"measurement": "relative viability", "setting": "BEN; first compound 0.253 µM", "result": 0.72}, {"measurement": "relative viability", "setting": "BEN; first compound 0.8 µM", "result": 0.763}, {"measurement": "relative viability", "setting": "BEN; first compound 2.53 µM", "result": 0.597}, {"measurement": "relative viability", "setting": "LU99A; first compound 0.08 µM", "result": 0.986}, {"measurement": "relative viability", "setting": "LU99A; first compound 0.253 µM", "result": 0.725}, {"measurement": "relative viability", "setting": "LU99A; first compound 0.8 µM", "result": 0.807}, {"measurement": "relative viability", "setting": "LU99A; first compound 2.53 µM", "result": 0.921}, {"measurement": "relative viability", "setting": "UMC-11; first compound 0.08 µM", "result": 0.633}, {"measurement": "relative viability", "setting": "UMC-11; first compound 0.253 µM", "result": 0.616}, {"measurement": "relative viability", "setting": "UMC-11; first compound 0.8 µM", "result": 0.467}, {"measurement": "relative viability", "setting": "UMC-11; first compound 2.53 µM", "result": 0.26}, {"measurement": "relative viability", "setting": "NCI-H2087; first compound 0.08 µM", "result": 0.28}, {"measurement": "relative viability", "setting": "NCI-H2087; first compound 0.253 µM", "result": 0.297}, {"measurement": "relative viability", "setting": "NCI-H2087; first compound 0.8 µM", "result": 0.302}, {"measurement": "relative viability", "setting": "NCI-H2087; first compound 2.53 µM", "result": 0.243}, {"measurement": "relative viability", "setting": "NCI-H2126; first compound 0.08 µM", "result": 0.559}, {"measurement": "relative viability", "setting": "NCI-H2126; first compound 0.253 µM", "result": 0.537}, {"measurement": "relative viability", "setting": "NCI-H2126; first compound 0.8 µM", "result": 0.595}, {"measurement": "relative viability", "setting": "NCI-H2126; first compound 2.53 µM", "result": 0.481}, {"measurement": "relative viability", "setting": "LOU-NH91; first compound 0.08 µM", "result": 0.806}, {"measurement": "relative viability", "setting": "LOU-NH91; first compound 0.253 µM", "result": 0.75}, {"measurement": "relative viability", "setting": "LOU-NH91; first compound 0.8 µM", "result": 0.819}, {"measurement": "relative viability", "setting": "LOU-NH91; first compound 2.53 µM", "result": 0.801}, {"measurement": "relative viability", "setting": "HCC-44; first compound 0.08 µM", "result": 0.969}, {"measurement": "relative viability", "setting": "HCC-44; first compound 0.253 µM", "result": 0.861}, {"measurement": "relative viability", "setting": "HCC-44; first compound 0.8 µM", "result": 0.928}, {"measurement": "relative viability", "setting": "HCC-44; first compound 2.53 µM", "result": 0.878}, {"measurement": "relative viability", "setting": "NCI-H1734; first compound 0.08 µM", "result": 0.489}, {"measurement": "relative viability", "setting": "NCI-H1734; first compound 0.253 µM", "result": 0.433}, {"measurement": "relative viability", "setting": "NCI-H1734; first compound 0.8 µM", "result": 0.494}, {"measurement": "relative viability", "setting": "NCI-H1734; first compound 2.53 µM", "result": 0.475}]}]}
